Results reported in ChEMBL document CHEMBL5036365, “A Molecular Networking Based Discovery of Diketopiperazine Heterodimers and Aspergillicins from Aspergillus caelatus” (J Nat Prod, 2022).
Calls of active or inactive are those of the source.

How the values were obtained:
HepG2 [1] = assay: Cytotoxicity against human HepG2 cells at 40 ug/ml treated for 72 hrs by MTT assay; format: functional, cell-based; settings: dose 40.0 µg/ml
Botrytis cinerea [2] = assay: Antifungal activity against Botrytis cinerea B05.10 at 160 ug/ml incubated for 24 hrs by agar based assay; format: functional, organism-based; settings: dose 160.0 µg/ml
Pyricularia grisea [3] = assay: Antifungal activity against Magnaporthe grisea CF-105765 at 160 ug/ml incubated for 24 hrs by agar based assay; format: functional, organism-based; settings: dose 160.0 µg/ml
Fusarium graminearum [4] = assay: Antifungal activity against Fusarium graminearum BRFM 1982 at 160 ug/ml incubated for 24 hrs by agar based assay; format: functional, organism-based; settings: dose 160.0 µg/ml
Pyricularia grisea [5] = assay: Antifungal activity against Magnaporthe grisea CF-105765 at 100 ug/ml incubated for 24 hrs by agar based assay; format: functional, organism-based; settings: dose 100.0 µg/ml
Fusarium graminearum [6] = assay: Antifungal activity against Fusarium graminearum BRFM 1982 at 100 ug/ml incubated for 24 hrs by agar based assay; format: functional, organism-based; settings: dose 100.0 µg/ml
Botrytis cinerea [7] = assay: Antifungal activity against Botrytis cinerea B05.10 at 100 ug/ml incubated for 24 hrs by agar based assay; format: functional, organism-based; settings: dose 100.0 µg/ml
HepG2 [8] = assay: Cytotoxicity against human HepG2 cells at 25 ug/ml treated for 72 hrs by MTT assay; format: functional, cell-based; settings: dose 25.0 µg/ml
HepG2 [9] = assay: Cytotoxicity against human HepG2 cells at 20 ug/ml treated for 72 hrs by MTT assay; format: functional, cell-based; settings: dose 20.0 µg/ml
Fusarium graminearum [10] = assay: Antifungal activity against Fusarium graminearum BRFM 1982 at 80 ug/ml incubated for 24 hrs by agar based assay; format: functional, organism-based; settings: dose 80.0 µg/ml
Pyricularia grisea [11] = assay: Antifungal activity against Magnaporthe grisea CF-105765 at 80 ug/ml incubated for 24 hrs by agar based assay; format: functional, organism-based; settings: dose 80.0 µg/ml
Botrytis cinerea [12] = assay: Antifungal activity against Botrytis cinerea B05.10 at 80 ug/ml incubated for 24 hrs by agar based assay; format: functional, organism-based; settings: dose 80.0 µg/ml
HepG2 [13] = assay: Cytotoxicity against human HepG2 cells at 12.5 ug/ml treated for 72 hrs by MTT assay; format: functional, cell-based; settings: dose 12.5 µg/ml
Pyricularia grisea [14] = assay: Antifungal activity against Magnaporthe grisea CF-105765 at 50 ug/ml incubated for 24 hrs by agar based assay; format: functional, organism-based; settings: dose 50.0 µg/ml
Fusarium graminearum [15] = assay: Antifungal activity against Fusarium graminearum BRFM 1982 at 50 ug/ml incubated for 24 hrs by agar based assay; format: functional, organism-based; settings: dose 50.0 µg/ml
Botrytis cinerea [16] = assay: Antifungal activity against Botrytis cinerea B05.10 at 50 ug/ml incubated for 24 hrs by agar based assay; format: functional, organism-based; settings: dose 50.0 µg/ml

Measured: Activity

CN1C(=O)[C@H](Cc2c[nH]c3cc([C@@]45C[C@H]6C(=O)N(C)[C@H](Cc7ccccc7)C(=O)N6[C@@H]4N(C=O)c4ccccc45)ccc23)NC(=O)[C@H]1Cc1ccccc1
inactive: HepG2 [1] | Botrytis cinerea [2] | Pyricularia grisea [3] | Fusarium graminearum [4]

CC[C@H](C)[C@H]1NC(=O)[C@@H](NC(C)=O)[C@@H](C)OC(=O)[C@H](C(C)C)NC(=O)[C@H](Cc2ccc(OC)cc2)N(C)C(=O)[C@@H]2CCCN2C(=O)[C@@H]2CCCN2C1=O
inactive: HepG2 [1] | Botrytis cinerea [2] | Pyricularia grisea [3] | Fusarium graminearum [4]

CN1C(=O)[C@H](Cc2cn([C@@]34C[C@H]5C(=O)N(C)[C@H](Cc6ccccc6)C(=O)N5[C@@H]3Nc3ccccc34)c3ccccc23)NC(=O)[C@H]1Cc1ccccc1
inactive: Pyricularia grisea [5] | Fusarium graminearum [6] | Botrytis cinerea [7] | HepG2 [8]

CC[C@H](C)[C@H]1NC(=O)[C@@H](NC(C)=O)[C@@H](C)OC(=O)[C@H](C(C)C)NC(=O)[C@H](Cc2ccccc2)N(C)C(=O)[C@@H]2CCCN2C(=O)[C@@H]2CCCN2C1=O
inactive: HepG2 [9] | Fusarium graminearum [10] | Pyricularia grisea [11] | Botrytis cinerea [12]

COc1ccc(C[C@H]2C(=O)N[C@@H](C(C)C)C(=O)O[C@H](C)[C@H](NC(C)=O)C(=O)N[C@H](C(C)C)C(=O)N3CCC[C@H]3C(=O)N3CCC[C@H]3C(=O)N2C)cc1
inactive: HepG2 [1] | Botrytis cinerea [2] | Pyricularia grisea [3] | Fusarium graminearum [4]

CN1C(=O)[C@H](Cc2c[nH]c3cc([C@@]45C[C@H]6C(=O)N(C)[C@H](Cc7ccccc7)C(=O)N6[C@@H]4Nc4ccccc45)ccc23)NC(=O)[C@H]1Cc1ccccc1
inactive: HepG2 [13] | Pyricularia grisea [14] | Fusarium graminearum [15] | Botrytis cinerea [16]

CN1C(=O)[C@H](Cc2cn([C@@]34C[C@H]5C(=O)N(C)[C@H](Cc6ccccc6)C(=O)N5[C@@H]3N(C=O)c3ccccc34)c3ccccc23)NC(=O)[C@H]1Cc1ccccc1
inactive: HepG2 [1] | Botrytis cinerea [2] | Pyricularia grisea [3] | Fusarium graminearum [4]

CN1C(=O)[C@H](Cc2c[nH]c3ccc([C@]45C[C@H]6C(=O)N(C)[C@H](Cc7ccccc7)C(=O)N6[C@H]4Nc4ccccc45)cc23)NC(=O)[C@H]1Cc1ccccc1
inactive: HepG2 [1] | Botrytis cinerea [2] | Pyricularia grisea [3] | Fusarium graminearum [4]
